Reference: PubChem BioAssay (NCI)
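Values below derive from 48-hour exposures of cells grown in 96-well plates, with endpoints linearly interpolated between the two concentrations bracketing the appropriate inhibition level. TGI: concentration producing complete growth inhibition.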

Tests used:
Assay in all cases: NCI anticancer screen, dose series, 48 h
A549 NSCLC = test system: A549 NSCLC
UO-31 renal = test system: UO-31 renal
786-0 renal = test system: 786-0 renal
U251 CNS = test system: U251 CNS
SR leukemia = test system: SR leukemia
PC-3 prostate = test system: PC-3 prostate
UACC-257 melanoma = test system: UACC-257 melanoma
IGROV1 ovarian = test system: IGROV1 ovarian
RXF 393 renal = test system: RXF 393 renal
NCI-H226 lung = test system: NCI-H226 lung
UACC-62 melanoma = test system: UACC-62 melanoma
HCT-15 colon = test system: HCT-15 colon
SK-OV-3 ovarian = test system: SK-OV-3 ovarian
SK-MEL-2 melanoma = test system: SK-MEL-2 melanoma
SN12C renal = test system: SN12C renal
MOLT-4 leukemia = test system: MOLT-4 leukemia
TK-10 renal = test system: TK-10 renal
HOP-62 NSCLC = test system: HOP-62 NSCLC
MALME-3M melanoma = test system: MALME-3M melanoma
SF-268 CNS = test system: SF-268 CNS
HCT-116 colon = test system: HCT-116 colon
HOP-92 NSCLC = test system: HOP-92 NSCLC
RPMI-8226 leukemia = test system: RPMI-8226 leukemia
HCC-2998 colon = test system: HCC-2998 colon
OVCAR-3 ovarian = test system: OVCAR-3 ovarian
NCI-H460 lung = test system: NCI-H460 lung
SW-620 colon = test system: SW-620 colon
LOX IMVI melanoma = test system: LOX IMVI melanoma
DU-145 prostate = test system: DU-145 prostate
EKVX NSCLC = test system: EKVX NSCLC
HT29 colon = test system: HT29 colon
HS 578T breast = test system: HS 578T breast
K-562 leukemia = test system: K-562 leukemia
SF-539 CNS = test system: SF-539 CNS
OVCAR-4 ovarian = test system: OVCAR-4 ovarian
NCI/ADR-RES ovarian = test system: NCI/ADR-RES ovarian
SK-MEL-5 melanoma = test system: SK-MEL-5 melanoma
SF-295 CNS = test system: SF-295 CNS
SNB-75 CNS = test system: SNB-75 CNS
MCF7 breast = test system: MCF7 breast
OVCAR-8 ovarian = test system: OVCAR-8 ovarian
T-47D breast = test system: T-47D breast
SK-MEL-28 melanoma = test system: SK-MEL-28 melanoma
MDA-N = test system: MDA-N
CAKI-1 renal = test system: CAKI-1 renal
SNB-19 CNS = test system: SNB-19 CNS
M14 melanoma = test system: M14 melanoma
CCRF-CEM leukemia = test system: CCRF-CEM leukemia
MDA-MB-231 breast = test system: MDA-MB-231 breast
COLO 205 colon = test system: COLO 205 colon
NCI-H23 lung = test system: NCI-H23 lung
KM12 colon = test system: KM12 colon
BT-549 breast = test system: BT-549 breast
NCI-H522 lung = test system: NCI-H522 lung
MDA-MB-435 = test system: MDA-MB-435
HL-60(TB) leukemia = test system: HL-60(TB) leukemia
ACHN renal = test system: ACHN renal
A498 renal = test system: A498 renal
OVCAR-5 ovarian = test system: OVCAR-5 ovarian

Measured: TGI

CC(=O)OCC1CCC(=C2C(=O)OC(C)(C)OC2=O)N1 (configuration not stated)
not listed: ACHN renal | A498 renal | OVCAR-5 ovarian
> 100 µM: all other assays above

CCOC1CN(C)C(=Nc2cccc3ccccc23)S1 (configuration not stated)
not listed: RXF 393 renal | SK-MEL-2 melanoma | HL-60(TB) leukemia
> 10 µM: all other assays above

C[C@]12CCC3c4ccc(O)cc4CC[C@H]3C1CC(=O)N(CCN1CCCC1)C2=O (some centres not stated)
not listed: HOP-92 NSCLC | NCI-H522 lung
> 10 µM: all other assays above

OC(Cc1cccnc1)(c1ccccc1)c1ccccc1
not listed: MOLT-4 leukemia | SF-539 CNS
> 100 µM: all other assays above

CN(CCNC(=O)c1[nH]nc2c1Cc1ccccc1-2)CCNC(=O)c1[nH]nc2c1Cc1ccccc1-2
34.4 µM: M14 melanoma
> 100 µM: NCI/ADR-RES ovarian
40.7 µM: HL-60(TB) leukemia
34.7 µM: UO-31 renal
34.5 µM: MALME-3M melanoma
44.9 µM: MCF7 breast
33.5 µM: NCI-H460 lung | OVCAR-5 ovarian
32.7 µM: HT29 colon
38.1 µM: K-562 leukemia
31.8 µM: IGROV1 ovarian | SN12C renal
38.4 µM: EKVX NSCLC
31.2 µM: MDA-N
36.8 µM: A498 renal
38.5 µM: LOX IMVI melanoma
33.4 µM: NCI-H522 lung
44.3 µM: T-47D breast
26.1 µM: SNB-75 CNS
33.2 µM: HCT-15 colon
39.8 µM: A549 NSCLC
39.6 µM: SF-268 CNS
35.8 µM: NCI-H226 lung
42.9 µM: SR leukemia | CCRF-CEM leukemia
32.5 µM: ACHN renal
31.3 µM: CAKI-1 renal
31.9 µM: COLO 205 colon
35.3 µM: MDA-MB-435
33.6 µM: NCI-H23 lung | KM12 colon
31 µM: SF-295 CNS | BT-549 breast
34.6 µM: HOP-92 NSCLC
45.2 µM: MOLT-4 leukemia
34.3 µM: UACC-257 melanoma
41.7 µM: OVCAR-8 ovarian
37.5 µM: UACC-62 melanoma
61.9 µM: HS 578T breast
29.4 µM: HOP-62 NSCLC | HCC-2998 colon
32.3 µM: RXF 393 renal
39.3 µM: MDA-MB-231 breast
35.2 µM: SK-MEL-28 melanoma
32 µM: DU-145 prostate
31.4 µM: SNB-19 CNS
33.7 µM: TK-10 renal
41.3 µM: U251 CNS
35.7 µM: PC-3 prostate
30.6 µM: 786-0 renal
30.8 µM: SK-MEL-5 melanoma
32.8 µM: HCT-116 colon
49.4 µM: SW-620 colon
32.4 µM: OVCAR-4 ovarian
31.1 µM: SK-OV-3 ovarian
28.9 µM: OVCAR-3 ovarian
